# Measured values published in ChEMBL document CHEMBL1255467, “Comparative in vitro antimicrobial activities of torezolid (TR-700), the active moiety of a new oxazolidinone, torezolid phosphate (TR-701), determination of tentative disk diffusion interpretive criteria, and quality control ranges” (2010).
# How the values were obtained:
# [1] = test system: Haemophilus influenzae; assay: Antimicrobial activity against beta-lactamase negative Haemophilus influenzae by broth dilution method; type: functional; details: for MBC / MIC50 / MIC90: Haemophilus influenzae
# [2] = test system: Haemophilus influenzae; assay: Antimicrobial activity against beta-lactamase positive Haemophilus influenzae by broth dilution method; type: functional
# [3] = test system: Enterococcus faecium; assay: Antimicrobial activity against vancomycin-susceptible Enterococcus faecium by broth dilution method; type: functional
# [4] = test system: Streptococcus sp; assay: Antimicrobial activity against streptococcal sp. by broth dilution method; details: for MBC / MIC50 / MIC90: Streptococcus sp.
# [5] = test system: Staphylococcus aureus; assay: Antimicrobial activity against vancomycin-nonsusceptible Staphylococcus aureus by broth dilution method; type: functional; details: for MBC / MIC50 / MIC90: Staphylococcus aureus
# [6] = test system: Streptococcus viridans; assay: Antimicrobial activity against Streptococcus viridans by broth dilution method; type: functional
# [7] = test system: Listeria monocytogenes; assay: Antimicrobial activity against Listeria monocytogenes by broth dilution method; type: functional
# [8] = test system: Enterococcus faecium; assay: Antimicrobial activity against vancomycin-resistant Enterococcus faecium by broth dilution method; type: functional
# [9] = test system: Staphylococcus sp.; assay: Antimicrobial activity against Staphylococcus sp. by broth dilution method; type: functional; details: for MBC / MIC50 / MIC90: Staphylococcus sp.
# [10] = test system: Enterococcus faecalis; assay: Antimicrobial activity against vancomycin-resistant Enterococcus faecalis by broth dilution method; type: functional
# [11] = test system: Streptococcus pneumoniae; assay: Antimicrobial activity against penicillin-intermediate Streptococcus pneumoniae by broth dilution method; type: functional; details: for MBC / MIC50 / MIC90: Streptococcus pneumoniae
# [12] = test system: Haemophilus influenzae; assay: Antimicrobial activity against Haemophilus influenzae by broth dilution method; type: functional; details: for MBC / MIC50 / MIC90: Haemophilus influenzae
# [13] = test system: Staphylococcus sp.; assay: Antimicrobial activity against methicillin-susceptible coagulase-negative Staphylococcus by broth dilution method; type: functional; details: for MBC / MIC50 / MIC90: Staphylococcus sp.
# [14] = test system: Streptococcus pneumoniae; assay: Antimicrobial activity against penicillin-susceptible Streptococcus pneumoniae by broth dilution method; type: functional; details: for MBC / MIC50 / MIC90: Streptococcus pneumoniae
# [15] = test system: Streptococcus pneumoniae; assay: Antimicrobial activity against penicillin-resistant Streptococcus pneumoniae by broth dilution method; type: functional
# [16] = test system: Enterococcus sp.; assay: Antimicrobial activity against Enterococcus by broth dilution method; type: functional; details: for MBC / MIC50 / MIC90: Enterococcus sp.
# [17] = test system: Staphylococcus sp.; assay: Antimicrobial activity against methicillin-resistant coagulase-negative Staphylococcus by broth dilution method; type: functional
# [18] = test system: Moraxella catarrhalis; assay: Antimicrobial activity against Moraxella catarrhalis by broth dilution method; type: functional
# [19] = test system: Corynebacterium jeikeium; assay: Antimicrobial activity against Corynebacterium jeikeium by broth dilution method; type: functional
# [20] = test system: Staphylococcus aureus; assay: Antimicrobial activity against methicillin-resistant Staphylococcus aureus by broth dilution method; type: functional; details: for MIC50 / MIC90: Staphylococcus aureus
# [21] = test system: Staphylococcus aureus; assay: Antimicrobial activity against linezolid-resistant Staphylococcus aureus by broth dilution method; type: functional
# [22] = test system: Enterococcus faecalis; assay: Antimicrobial activity against vancomycin-susceptible Enterococcus faecalis by broth dilution method; type: functional; details: for MBC / MIC50 / MIC90: Enterococcus faecalis
# [23] = test system: Streptococcus pneumoniae; assay: Antimicrobial activity against Streptococcus pneumoniae by broth dilution method; type: functional; details: for MBC / MIC50 / MIC90: Streptococcus pneumoniae
# [24] = test system: Staphylococcus aureus; assay: Antimicrobial activity against Staphylococcus aureus by broth dilution method; type: functional; details: for MBC / MIC50 / MIC90: Staphylococcus aureus
# [25] = test system: Staphylococcus aureus; assay: Antimicrobial activity against methicillin-susceptible Staphylococcus aureus by broth dilution method; type: functional
# [26] = test system: Haemophilus influenzae; assay: Antimicrobial activity against ampicillin-nonsusceptible beta-lactamase negative Haemophilus influenzae by broth dilution method; type: functional
# [27] = Haemophilus influenzae, read-out: MIC90
smiles,measurement,setting,value
CC(=O)NC[C@H]1CN(c2ccc(N3CCOCC3)c(F)c2)C(=O)O1 [LINEZOLID],MBC50,[1],>8 mg/L
same,MBC90,[1],>8 mg/L
same,MBC,[1],> 8 mg/L
same,MIC50,[1],> 8 mg/L
same,MIC90,[1],> 8 mg/L
same,MBC50,[2],>8 mg/L
same,MBC90,[2],>8 mg/L
same,MBC,[2]; Haemophilus influenzae,> 8 mg/L
same,MIC,[2]; Haemophilus influenzae,> 8 mg/L
same,MIC50,[2]; Haemophilus influenzae,> 8 mg/L
same,MIC90,[2]; [27],> 8 mg/L
same,MBC50,[3],>8 mg/L
same,MBC90,[3],>8 mg/L
same,MBC,[3]; Enterococcus faecium,> 8 mg/L
same,MIC,[3]; Enterococcus faecium,2 mg/L
same,MIC50,[3]; Enterococcus faecium,2 mg/L
same,MIC90,[3]; Enterococcus faecium,2 mg/L
same,MBC50,[4],8 mg/L
same,MBC90,[4],>8 mg/L
same,MBC,[4],> 2 mg/L
same,MIC50,[4],1 mg/L
same,MIC90,[4],2 mg/L
same,MBC50,[5],2 mg/L
same,MBC90,[5],4 mg/L
same,MBC,[5],2 mg/L
same,MIC50,[5],2 mg/L
same,MIC90,[5],4 mg/L
same,MIC50,[6],2 mg/L
same,MIC90,[6],2 mg/L
same,MIC,[7],2 mg/L
same,MIC50,[7],2 mg/L
same,MIC90,[7],2 mg/L
same,MBC,[8],> 4 mg/L
same,MIC50,[8],2 mg/L
same,MIC90,[8],4 mg/L
same,MBC50,[9],8 mg/L
same,MBC90,[9],>8 mg/L
same,MBC,[9],> 2 mg/L
same,MIC50,[9],2 mg/L
same,MIC90,[9],2 mg/L
same,MIC50,[10],2 mg/L
same,MIC90,[10],2 mg/L
same,MBC50,[11],4 mg/L
same,MBC90,[11],8 mg/L
same,MBC,[11],> 2 mg/L
same,MIC50,[11],1 mg/L
same,MIC90,[11],2 mg/L
same,MBC50,[12],>8 mg/L
same,MBC90,[12],>8 mg/L
same,MBC,[12],> 8 mg/L
same,MIC50,[12],> 8 mg/L
same,MIC90,[12],> 8 mg/L
same,MBC50,[13],>8 mg/L
same,MBC90,[13],>8 mg/L
same,MBC,[13],> 2 mg/L
same,MIC50,[13],1 mg/L
same,MIC90,[13],2 mg/L
same,MBC50,[14],4 mg/L
same,MBC90,[14],8 mg/L
same,MBC,[14],> 2 mg/L
same,MIC50,[14],1 mg/L
same,MIC90,[14],2 mg/L
same,MBC,[15],4 mg/L
same,MIC50,[15],1 mg/L
same,MIC90,[15],2 mg/L
same,MBC50,[16],>8 mg/L
same,MBC90,[16],>8 mg/L
same,MBC,[16],> 4 mg/L
same,MIC50,[16],2 mg/L
same,MIC90,[16],2 mg/L
same,MBC,[17],> 8 mg/L
same,MIC50,[17],1 mg/L
same,MIC90,[17],4 mg/L
same,MIC,[18],8 mg/L
same,MIC50,[18],8 mg/L
same,MIC90,[18],8 mg/L
same,MIC50,[19],1 mg/L
same,MIC90,[19],1 mg/L
same,MIC50,[20],2 mg/L
same,MIC90,[20],4 mg/L
same,MBC,[21],> 8 mg/L
same,MIC50,[21],> 8 mg/L
same,MIC90,[21],> 8 mg/L
same,MBC50,[22],>8 mg/L
same,MBC90,[22],>8 mg/L
same,MBC,[22],> 8 mg/L
same,MIC50,[22],2 mg/L
same,MIC90,[22],2 mg/L
same,MBC50,[23],4 mg/L
same,MBC90,[23],8 mg/L
same,MBC,[23],> 2 mg/L
same,MIC50,[23],1 mg/L
same,MIC90,[23],2 mg/L
same,MBC50,[24],8 mg/L
same,MBC90,[24],>8 mg/L
same,MBC,[24],> 2 mg/L
same,MIC50,[24],2 mg/L
same,MIC90,[24],2 mg/L
same,MBC50,[25],>8 mg/L
same,MBC90,[25],>8 mg/L
same,MBC,[25]; Staphylococcus aureus,> 4 mg/L
same,MIC50,[25]; Staphylococcus aureus,2 mg/L
same,MIC90,[25]; Staphylococcus aureus,2 mg/L
same,MBC50,[26],>8 mg/L
same,MBC90,[26],>8 mg/L
same,MBC,[26]; Haemophilus influenzae,> 8 mg/L
same,MIC,[26]; Haemophilus influenzae,> 8 mg/L
same,MIC50,[26]; Haemophilus influenzae,> 8 mg/L
same,MIC90,[26]; Haemophilus influenzae,> 8 mg/L
Cn1nnc(-c2ccc(-c3ccc(N4C[C@H](CO)OC4=O)cc3F)cn2)n1 [TEDIZOLID],MBC50,[1],>32 mg/L
same,MBC90,[1],>32 mg/L
same,MBC,[1],> 16 mg/L
same,MIC50,[1],8 mg/L
same,MIC90,[1],16 mg/L
same,MBC50,[2],>32 mg/L
same,MIC90,[2],>32 mg/L
same,MBC,[2]; Haemophilus influenzae,> 32 mg/L
same,MIC50,[2]; Haemophilus influenzae,8 mg/L
same,MIC90,[2]; [27],32 mg/L
same,MBC50,[3],32 mg/L
same,MBC90,[3],32 mg/L
same,MBC,[3]; Enterococcus faecium,16 mg/L
same,MIC50,[3]; Enterococcus faecium,0.5 mg/L
same,MIC90,[3]; Enterococcus faecium,0.5 mg/L
same,MBC50,[4],1 mg/L
same,MBC90,[4],16 mg/L
same,MBC,[4],0.5 mg/L
same,MIC50,[4],0.25 mg/L
same,MIC90,[4],0.25 mg/L
same,MBC50,[5],0.5 mg/L
same,MBC90,[5],1 mg/L
same,MBC,[5],0.5 mg/L
same,MIC50,[5],0.25 mg/L
same,MIC90,[5],1 mg/L
same,MIC50,[6],0.25 mg/L
same,MIC90,[6],0.25 mg/L
same,MIC,[7],0.25 mg/L
same,MIC50,[7],0.25 mg/L
same,MIC90,[7],0.25 mg/L
same,MBC,[8],1 mg/L
same,MIC50,[8],0.5 mg/L
same,MIC90,[8],0.5 mg/L
same,MBC50,[9],8 mg/L
same,MBC90,[9],32 mg/L
same,MBC,[9],> 0.5 mg/L
same,MIC50,[9],0.25 mg/L
same,MIC90,[9],0.5 mg/L
same,MBC,[10],> 16 mg/L
same,MIC50,[10],0.5 mg/L
same,MIC90,[10],0.5 mg/L
same,MBC50,[11],1 mg/L
same,MBC90,[11],1 mg/L
same,MBC,[11],0.5 mg/L
same,MIC50,[11],0.25 mg/L
same,MIC90,[11],0.5 mg/L
same,MBC50,[12],>32 mg/L
same,MBC90,[12],>32 mg/L
same,MBC,[12],> 8 mg/L
same,MIC50,[12],8 mg/L
same,MIC90,[12],16 mg/L
same,MBC50,[13],16 mg/L
same,MBC90,[13],32 mg/L
same,MBC,[13],> 2 mg/L
same,MIC50,[13],0.25 mg/L
same,MIC90,[13],0.5 mg/L
same,MBC50,[14],1 mg/L
same,MBC90,[14],4 mg/L
same,MBC,[14],0.5 mg/L
same,MIC50,[14],0.25 mg/L
same,MIC90,[14],0.25 mg/L
same,MBC,[15],1 mg/L
same,MIC50,[15],0.25 mg/L
same,MIC90,[15],0.25 mg/L
same,MBC50,[16],32 mg/L
same,MBC90,[16],32 mg/L
same,MBC,[16],> 1 mg/L
same,MIC50,[16],0.5 mg/L
same,MIC90,[16],0.5 mg/L
same,MIC50,[17],0.25 mg/L
same,MIC90,[17],0.5 mg/L
same,MIC50,[18],4 mg/L
same,MIC90,[18],4 mg/L
same,MIC,[19],0.25 mg/L
same,MIC50,[19],0.25 mg/L
same,MIC90,[19],0.5 mg/L
same,MBC50,[20],2 mg/L
same,MIC50,[20],0.5 mg/L
same,MIC90,[20],1 mg/L
same,MBC,[21],> 16 mg/L
same,MIC50,[21],4 mg/L
same,MIC90,[21],8 mg/L
same,MBC50,[22],32 mg/L
same,MBC90,[22],32 mg/L
same,MBC,[22],16 mg/L
same,MIC50,[22],0.5 mg/L
same,MIC90,[22],0.5 mg/L
same,MBC50,[23],1 mg/L
same,MBC90,[23],2 mg/L
same,MBC,[23],0.5 mg/L
same,MIC50,[23],0.25 mg/L
same,MIC90,[23],0.25 mg/L
same,MBC50,[24],4 mg/L
same,MBC90,[24],16 mg/L
same,MBC,[24],> 0.5 mg/L
same,MIC50,[24],0.5 mg/L
same,MIC90,[24],0.5 mg/L
same,MBC50,[25],16 mg/L
same,MBC90,[25],32 mg/L
same,MBC,[25]; Staphylococcus aureus,1 mg/L
same,MIC,[25]; Staphylococcus aureus,0.25 mg/L
same,MIC50,[25]; Staphylococcus aureus,0.25 mg/L
same,MIC90,[25]; Staphylococcus aureus,0.5 mg/L
same,MBC50,[26],>32 mg/L
same,MBC90,[26],>32 mg/L
same,MBC,[26]; Haemophilus influenzae,> 8 mg/L
same,MIC50,[26]; Haemophilus influenzae,8 mg/L
same,MIC90,[26]; Haemophilus influenzae,16 mg/L
